According to patent US20230398130A1, “METHODS AND COMPOSITIONS FOR DIFFERENTIATING STEM CELLS” (Massachusetts Institute of Technology, priority 2020, published 2023):

Columns and labels:
ISC-enriched organoids [1] = assay: Primary screen, 384-well 2.5-D organoid differentiation (ENR+CD, 6 days): basal lysozyme secretion (LYZ.NS); type: cell-based, murine; settings: primary screen; for Dose.FC.LYZ.NS (log 2 fold change): vs plate median
From the text: (§1) High-throughput screening.

ISC-enriched organoids [2] = assay: Primary screen, 384-well 2.5-D organoid differentiation (ENR+CD, 6 days): carbachol-induced lysozyme secretion (LYZ.S); type: cell-based, murine; settings: primary screen, vs plate median
From the text: as §1

ISC-enriched organoids [3] = assay: Primary screen, 384-well 2.5-D organoid differentiation (ENR+CD, 6 days, Target Selective Inhibitor Library, vs whole-plate median): ATP (CellTiter-Glo 3D, CTG); settings: primary screen; for Dose.FC.CTG (log 2 fold change): vs plate median

| Structure (SMILES) | Z.LYZ.NS (standard z score) (ISC-enriched organoids [1]; Dose 0.08 uM) | Dose.FC.LYZ.NS (log 2 fold change) (ISC-enriched organoids [1]; Dose 0.08 uM) | Z.LYZ.NS (standard z score) (ISC-enriched organoids [1]; Dose 0.40 uM) | Dose.FC.LYZ.NS (log 2 fold change) (ISC-enriched organoids [1]; Dose 0.40 uM) | Z.LYZ.NS (standard z score) (ISC-enriched organoids [1]; Dose 2.00 uM) | Dose.FC.LYZ.NS (log 2 fold change) (ISC-enriched organoids [1]; Dose 2.00 uM) | Z.LYZ.NS (standard z score) (ISC-enriched organoids [1]; Dose 10.00 uM) | Dose.FC.LYZ.NS (log 2 fold change) (ISC-enriched organoids [1]; Dose 10.00 uM) | Dose.FC.LYZ.S (log 2 fold change) (ISC-enriched organoids [2]; Dose 0.08 uM) | Dose.FC.LYZ.S (log 2 fold change) (ISC-enriched organoids [2]; Dose 0.40 uM) | Dose.FC.LYZ.S (log 2 fold change) (ISC-enriched organoids [2]; Dose 2.00 uM) | Dose.FC.LYZ.S (log 2 fold change) (ISC-enriched organoids [2]; Dose 10.00 uM) | Z.CTG (standard z score) (ISC-enriched organoids [3]; Dose 0.08 uM) | Dose.FC.CTG (log 2 fold change) (ISC-enriched organoids [3]; Dose 0.08 uM) | Z.CTG (standard z score) (ISC-enriched organoids [3]; Dose 0.40 uM) | Dose.FC.CTG (log 2 fold change) (ISC-enriched organoids [3]; Dose 0.40 uM) | Z.CTG (standard z score) (ISC-enriched organoids [3]; Dose 2.00 uM) | Dose.FC.CTG (log 2 fold change) (ISC-enriched organoids [3]; Dose 2.00 uM) | Z.CTG (standard z score) (ISC-enriched organoids [3]; Dose 10.00 uM) | Dose.FC.CTG (log 2 fold change) (ISC-enriched organoids [3]; Dose 10.00 uM) |
| --- | --- | --- | --- | --- | --- | --- | --- | --- | --- | --- | --- | --- | --- | --- | --- | --- | --- | --- | --- | --- |
| Cc1ccc(C(=O)N(CCCN)[C@@H](c2oc3cc(Cl)ccc3c(=O)c2Cc2ccccc2)C(C)C)cc1 [SB743921] | −2.017 | −0.232 | −2.148 | −0.247 | −2.297 | −0.264 | −2.068 | −0.238 | −0.321 | −0.329 | −0.340 | −0.350 | −1.159 | −0.485 | −1.855 | −0.777 | −1.158 | −0.485 | −1.294 | −0.542 |
| O=C(NNc1nc2cc(F)ccc2n2cccc12)c1cnccn1 [SC144] | 0.582 | 0.067 | −0.112 | −0.013 | −0.220 | −0.025 | −1.355 | −0.156 | 0.098 | 0.014 | −0.131 | −0.211 | 0.381 | 0.160 | 0.309 | 0.129 | −0.613 | −0.257 | −2.113 | −0.885 |
| Cc1cc(Nc2ccc(NC(=O)c3ccc(Nc4ccnc5ccccc45)cc3)cc2)nc(N)n1 [SGI-1027] | 0.528 | 0.061 | 0.735 | 0.084 | 1.123 | 0.129 | −0.046 | −0.005 | 0.060 | 0.145 | 0.094 | 0.018 | 0.583 | 0.244 | 0.712 | 0.298 | 0.412 | 0.172 | 0.125 | 0.052 |
| CN1CCC(CNc2ccc3ncc(-c4cccc(OC(F)(F)F)c4)n3n2)CC1 [SGI-1776free base] | 1.013 | 0.116 | 0.362 | 0.042 | 0.108 | 0.012 | −1.784 | −0.205 | 0.159 | 0.088 | 0.011 | −0.317 | 0.407 | 0.170 | 0.665 | 0.278 | 0.506 | 0.212 | −2.468 | −1.033 |
